From patent US20140187548A1, “6 SUBSTITUTED IMIDAZOPYRAZINES FOR USE AS MPS-1 AND TKK INHIBITORS IN THE TREATMENT OF HYPERPROLIFERATIVE DISORDERS” (BAYER INTELLECTUAL PROPERTY GMBH, priority 2010, published 2014)
pIC50: −log10 of the molar value.

Molecular target: T1, human kinase Mps-1 (Homo sapiens, UniProt P33981)
T1 construct: N-terminally GST-tagged human full length recombinant Mps-1 kinase; GST (N); purchased Invitrogen, Karslruhe, Germany PV4071
T1 sequence (P33981 1-857): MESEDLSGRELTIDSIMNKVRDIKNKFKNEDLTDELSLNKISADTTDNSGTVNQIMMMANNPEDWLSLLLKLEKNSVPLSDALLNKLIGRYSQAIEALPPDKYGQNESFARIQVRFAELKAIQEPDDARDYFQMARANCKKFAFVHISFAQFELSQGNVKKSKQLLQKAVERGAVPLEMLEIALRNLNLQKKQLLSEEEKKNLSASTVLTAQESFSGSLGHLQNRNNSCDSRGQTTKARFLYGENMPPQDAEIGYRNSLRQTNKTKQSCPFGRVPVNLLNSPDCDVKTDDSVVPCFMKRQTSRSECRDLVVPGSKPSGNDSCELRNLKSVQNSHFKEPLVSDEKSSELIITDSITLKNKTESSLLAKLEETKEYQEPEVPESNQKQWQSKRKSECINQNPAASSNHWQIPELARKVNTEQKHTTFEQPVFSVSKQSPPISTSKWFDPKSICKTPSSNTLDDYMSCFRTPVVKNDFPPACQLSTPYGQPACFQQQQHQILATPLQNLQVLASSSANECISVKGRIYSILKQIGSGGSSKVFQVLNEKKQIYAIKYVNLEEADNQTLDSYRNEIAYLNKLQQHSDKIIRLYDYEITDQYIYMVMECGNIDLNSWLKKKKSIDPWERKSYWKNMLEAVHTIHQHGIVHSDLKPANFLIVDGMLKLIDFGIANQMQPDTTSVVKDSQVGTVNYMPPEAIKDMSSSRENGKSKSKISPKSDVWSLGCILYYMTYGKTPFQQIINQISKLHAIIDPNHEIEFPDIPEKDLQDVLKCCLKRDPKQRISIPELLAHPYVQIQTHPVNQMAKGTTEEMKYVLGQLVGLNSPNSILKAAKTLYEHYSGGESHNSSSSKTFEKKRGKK
Assay: Mps-1 kinase assay (TR-FRET)
Assay type: biochemical
Details: N-terminally GST-tagged human full length recombinant Mps-1; 10 μM ATP; 1 μM peptide substrate; 15 min pre-incubation; 60 min at 22° C.
Procedure, shortened: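 N-terminally GST-tagged full-length recombinant human Mps-1, about 1 nM final, phosphorylates a biotinylated peptide. Product detected by TR-FRET from Eu-anti-phospho-Ser/Thr antibody to streptavidin-XLent after 1 h at 22° C.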

SMILES	pIC50
CC(C)(O)CNc1nc(-c2ccccc2CO)cn2c(-c3ccc(C(=O)NC4CC4)cc3)cnc12 [Example 1-132, N-cyclopropyl-4-{6-[2-(hydroxymethyl)phenyl]-8-[(2-hydroxy-2-methylpropyl)amino]imidazo[1,2-a]pyrazin-3-yl}benzamide]	7.99
COc1cccc(-c2cn3c(-c4ccc(C(=O)NC5CC5)cc4)cnc3c(NCC(C)C)n2)c1F [Example 1-13, N-cyclopropyl-4-{6-(2-fluoro-3-methoxyphenyl)-8-[(2-methylpropyl)amino]imidazo[1,2-a]pyrazin-3-yl}benzamide]	8.15
CC(C)(O)CNc1nc(-c2ccccc2CO)cn2c(-c3ccc(C(=O)NC4CC4)c(Cl)c3)cnc12 [Example 1-100, 2-chloro-N-cyclopropyl-4-{6-[2-(hydroxymethyl)phenyl]-8-[(2-hydroxy-2-methylpropyl)amino]imidazo[1,2-a]pyrazin-3-yl}benzamide]	7.06
CN(C)CCCCNc1nc(-c2ccccc2)cn2c(-c3ccc(C(=O)NC4CC4)cc3)cnc12 [Example 2-38, N-cyclopropyl-4-(8-{[4-(dimethylamino)butyl]amino}-6-phenylimidazo[1,2-a]pyrazin-3-yl)benzamide]	7.88
O=C(NC1CC1)c1ccc(-c2cnc3c(NCCCc4ccccc4)nc(-c4ccccc4)cn23)cc1 [Example 2-31, N-cyclopropyl-4-{6-phenyl-8-[(3-phenylpropyl)amino]imidazo[1,2-a]pyrazin-3-yl} benzamide]	7.46
CC(C)CNc1nc(-c2cccc(OC(C)C)c2)cn2c(-c3ccc(C(=O)NC4CC4)cc3)cnc12 [Example 1-29, N-cyclopropyl-4-{8-[(2-methylpropyl)amino]-6-[3-(propan-2-yloxy)phenyl]imidazo[1,2-a]pyrazin-3-yl}benzamide]	7.82
CC(C)CNc1nc(-c2ccc(-c3ccccc3)cc2)cn2c(-c3ccc(C(=O)NC4CC4)cc3)cnc12 [Example 1-49, 4-{6-(biphenyl-4-yl)-8-[(2-methylpropyl)amino]imidazo[1,2-a]pyrazin-3-yl}-N-cyclopropyl-benzamide]	8.14
NCCNc1nc(-c2ccccc2)cn2c(-c3ccc(C(=O)NC4CC4)cc3)cnc12 [Example 2-69, 4-{8-[(2-Aminoethyl)amino]-6-phenylimidazo[1,2-a]pyrazin-3-yl}-N-cyclopropylbenzamide]	7.26
Cc1cc(-c2cnc3c(NCC4CCCO4)nc(-c4ccc(F)cc4)cn23)ccc1C(=O)NC1CC1 (stereo not shown) [Example 10-2, N-cyclopropyl-4-{6-(4-fluorophenyl)-8-[(tetrahydrofuran-2-ylmethyl)amino]imidazo [1,2-a]pyrazin-3-yl}-2-methylbenzamide]	8.04
NS(=O)(=O)c1ccc(CNc2nc(-c3ccccc3)cn3c(-c4ccc(C(=O)NC5CC5)cc4)cnc23)cc1 [Example 2-26, N-cyclopropyl-4-{6-phenyl-8-[(4-sulfamoylbenzyl)amino]imidazo[1,2-a]pyrazin-3-yl}benzamide]	8.25
Cc1ccc(-c2cn3c(-c4ccc(C(=O)NC5CC5)cc4)cnc3c(NCC(C)C)n2)cc1Cl [Example 1-80, 4-{6-(3-chloro-4-methyl-phenyl)-8-[(2-methylpropyl)amino]imidazo [1,2-a]pyrazin-3-yl}-N-cyclopropylbenzamide]	7.68
CC(C)CNc1nc(-c2ccccc2C(=O)N(C)C)cn2c(-c3ccc(C(=O)NC4CC4)cc3)cnc12 [Example 1-28, 2-{3-[4-(cyclopropyl-carbamoyl)phenyl]-8-[(2-methylpropyl)amino]imidazo[1,2-a]pyrazin-6-yl}-N,N-dimethyl-benzamide]	8.09

These reach a higher pIC50. Values come first.

pIC50	SMILES
8.82	Cn1nccc1CNc1nc(-c2ccccc2)cn2c(-c3ccc(C(=O)NC4CC4)cc3)cnc12 [Example 2-54, N-cyclopropyl-4-(8-{[(1-methyl-1H-pyrazol-5-yl)methyl]amino}-6-phenylimidazo[1,2-a]pyrazin-3-yl)benzamide]
8.80	CC(C)(O)CNc1nc(-c2ccc(F)cc2)cn2c(-c3ccc(C(=O)NC4CC4)cc3)cnc12 [Example 1-131, N-cyclopropyl-4-{6-(4-fluorophenyl)-8-[(2-hydroxy-2-methylpropyl)amino]imidazo[1,2-a]pyrazin-3-yl}benzamide]
8.96	CC(=O)c1ccc(-c2cn3c(-c4ccc(C(=O)NC5CC5)cc4)cnc3c(NCC(C)C)n2)cc1 [Example 1-48, 4-{6-(4-acetylphenyl)-8-[(2-methylpropyl)amino]imidazo[1,2-a]pyrazin-3-yl}-N-cyclopropyl-benzamide]
8.96	CC(C)CNc1nc(-c2ccc(C(C)O)cc2)cn2c(-c3ccc(C(=O)NC4CC4)cc3)cnc12 (racemic) [Example 6-2, (RS)N-cyclopropyl-4-{6-[4-(1-hydroxyethyl)phenyl]-8-(isobutylamino)imidazo[1,2-a]pyrazin-3-yl}benzamide]
9.00	CC(C)CNc1nc(-c2ccc(CCO)cc2)cn2c(-c3ccc(C(=O)NC4CC4)cc3)cnc12 [Example 6-1, N-cyclopropyl-4-{6-[4-(2-hydroxyethyl)phenyl]-8-(isobutylamino)imidazo[1,2-a]pyrazin-3-yl}benzamide]
8.34	CC(C)CNc1nc(-c2cccc3ccccc23)cn2c(-c3ccc(C(=O)NC4CC4)cc3)cnc12 [Example 1-4, N-cyclopropyl-4-{8-[(2-methylpropyl)amino]-6-(naphthalen-1-yl)imidazo[1,2-a]pyrazin-3-yl}benzamide]
8.82	Cc1ccccc1-c1cn2c(-c3ccc(C(=O)NC4CC4)cc3)cnc2c(NCC(C)C)n1 [Example 1-19, N-cyclopropyl-4-{6-(2-methylphenyl)-8-[(2-methylpropyl)amino]imidazo[1,2-a]pyrazin-3-yl}benzamide]
8.59	CC(C)CNc1nc(-c2cccc3[nH]ccc23)cn2c(-c3ccc(C(=O)NC4CC4)cc3)cnc12 [Example 1-22, N-cyclopropyl-4-{6-(1H-indol-4-yl)-8-[(2-methyl-propyl)amino]imidazo [1,2-a]pyrazin-3-yl} benzamide]
8.85	CC(C)CNc1nc(-c2cccc(CO)c2)cn2c(-c3ccc(C(=O)NC4CC4)cc3)cnc12 [Example 1-5, N-cyclopropyl-4-{6-[3-(hydroxymethyl)phenyl]-8-[(2-methylpropyl)amino]imidazo[1,2-a]pyrazin-3-yl}benzamide]
8.96	O=C(NC1CC1)c1ccc(-c2cnc3c(NCCC(F)(F)F)nc(-c4ccccc4)cn23)cc1 [Example 2-43, N-cyclopropyl-4-{6-phenyl-8-[(3,3,3-trifluoropropyl)amino]imidazo[1,2-a]pyrazin-3-yl} benzamide]
8.64	COC(=O)c1cccc(-c2cn3c(-c4ccc(C(=O)NC5CC5)cc4)cnc3c(NCC(C)C)n2)c1 [Example 1-11, methyl 3-{3-[4-(cyclopropyl-carbamoyl)phenyl]-8-[(2-methylpropyl)amino]imidazo[1,2-a]pyrazin-6-yl}benzoate]
8.27	CCCc1cn2c(-c3ccc(C(=O)NC4CC4)cc3)cnc2c(NCC(C)C)n1 [Example 11-3, N-cyclopropyl-4-{8-[(2-methylpropyl)amino]-6-propylimidazo [1,2-a]pyrazin-3-yl}benzamide]
8.68	CC(C)CNc1nc(-c2ccc(C(=O)Nc3ccccc3)cc2)cn2c(-c3ccc(C(=O)NC4CC4)cc3)cnc12 [Example 1-53, 4-{3-[4-(cyclopropyl-carbamoyl)phenyl]-8-[(2-methylpropyl)amino]imidazo[1,2-a]pyrazin-6-yl}-N-phenylbenzamide]
8.28	CC(C)CNc1nc(-c2ccccc2CO)cn2c(-c3ccc(C(=O)NC4CC4)c(Cl)c3)cnc12 [Example 1-95, 2-chloro-N-cyclopropyl-4-{6-[2-(hydroxymethyl)phenyl]-8-[(2-methyl-propyl)amino]imidazo [1,2-a]pyrazin-3-yl} benzamide]
8.70	CC(C)CNc1nc(-c2ccc([N+](=O)[O-])cc2)cn2c(-c3ccc(C(=O)NC4CC4)cc3)cnc12 [Example 1-61, N-cyclopropyl-4-{8-[(2-methylpropyl)amino]-6-(4-nitrophenyl)imidazo [1,2-a]pyrazin-3-yl} benzamide]
8.52	CC(C)CNc1nc(-c2ccccc2CO)cn2c(-c3ccc(C(=O)NC4CC4)c(F)c3)cnc12 [Example 1-111, N-cyclopropyl-2-fluoro-4-{6-[2-(hydroxymethyl)phenyl]-8-[(2-methyl-propyl)amino]imidazo [1,2-a]pyrazin-3-yl} benzamide]
